According to patent US20250213475A1, “LIPOSOMAL COMPOSITIONS” (R.G.C.C. Holdings AG, priority 2022, published 2025):

Experiments:
[1] = Encapsulation efficacy, indirect from free drug in supernatant by UV/VIS; type: physicochemical; details: analogue 1 mg/mL
Procedure: At the end of the above encapsulation process, the solution was centrifuged at 15.000 rpm for 20 minutes and the supernatant was kept for indirect encapsulation determination. The precipitate was lyophilized and kept for further analysis and characterization.
The supernatants after each centrifugation were kept and used to evaluate the amount of the free drug. Subtracting the amount of the free drug at the supernatant from the total added drug, the rest is considered as encapsulated. Briefly, from each solution samples were collected in order to prepare solutions, which were then evaluated with UV/VIS spectrometry. Based on standard curves, in which the different nucleosides were measured in solution on a UV-VIS spectrometer, different the remaining quantity was calculated. The encapsulation efficacy was measured then based on the following equation:
[formula] Quantity of the Nucleoside Analogue in the liposome=(Quantity of the Nucleoside Analogue initially added−Quantity of the Nucleoside Analogue in the supernatant).
For example, for {[2-(6-amino-9H-purin-9-yl)quinazolin-4-yl]oxy}phosphonic acid system code 1, after the centrifugation, we keep the supernatant from which, a fraction is collected to prepare a solution with targeted concertation of 10 ppm. Based on the Dilution Equation, C1V1=C2V2, C1=1000, because we consider, at the initial solution that the concentration is 1000 ppm (based on the fact that all of the added nucleoside analogue would be in the supernatant) • C2: is the targeted concentration, here 10 ppm • V2: volume of the final solution, here 10 mL
Thus, we take 100 uL from the supernatant and we dilute it to 10 mL final volume. The sample is quantified by UV/VIS spectrometry and we calculate the actual concentration of the sample. The concentration is converted to mass and we can estimate the final mass of the nucleoside analogue in the supernatant and in the liposome.

[2] = tested on: human colorectal carcinoma HCT116 cell line; experiment: AlamarBlue cytotoxicity assay, HCT116; type: cell-based; details: HCT116, 0.01 μM to 10 μM, 24 h, 48 h and 72 h
Procedure: (§1) All cell lines were maintained at 37° C. in a humidified 5% CO2 atmosphere. AlamarBlue assay was performed to assess cell viability. The viable cells were seeded at a density of 2×10^4 (200 μl/well) in 96-well plate and incubated at 37° C. and 5% CO2 for 24 h to form a cell monolayer. After 24 h of incubation, supernatant on the monolayer was aspirated and 200 μl of medium and varying concentrations of the substances were added and incubated for 24 h, 48 h and 72 h time points. […] Fluorescence was measured at 560 nm excitation and 590 nm emission wavelength. The experiment was performed in triplicates. The average fluorescence was calculated for each triplicate. One sample t-test was used to determine differences in the mean by comparing the treated samples with the untreated controls. P values <0.05 were considered to indicate a statistically significant difference.

[3] = tested on: human breast adenocarcinoma (triple negative) MDA-MB-231 cell line; experiment: AlamarBlue cytotoxicity assay, MDA-MB-231; type: cell-based; details: MDA-MB-231, 0.01 μM to 10 μM, 24 h, 48 h and 72 h
Procedure: The human breast adenocarcinoma (luminal type) MCF7 cell line (ECACC 86012803), human breast adenocarcinoma (triple negative) MDA-MB-231 cell line (ECACC 92020424), human colorectal carcinoma HCT116 cell line (ECACC 91091005) and human lung cancer COLO699N cell line (ECACC 93052608) were culture in RPMI 1640 medium Catalog #R0883 (Sigma-Aldrich, Darmstadt, Germany) supplemented with 10% fetal bovine serum Catalog #FB-1001/500 (BioSera, Nuaille, France) and 1% L-glutamine Catalog #G7513-100ML (Sigma-Aldrich, Darmstadt, Germany). All cell lines were maintained at 37° C. in a humidified 5% CO2 atmosphere. AlamarBlue assay was performed to assess cell viability. The viable cells were seeded at a density of 2×10^4 (200 μl/well) in 96-well plate and incubated at 37° C. and 5% CO2 for 24 h to form a cell monolayer. After 24 h of incubation, supernatant on the monolayer was aspirated and 200 μl of medium and varying concentrations of the substances were added and incubated for 24 h, 48 h and 72 h time points. […] Fluorescence was measured at 560 nm excitation and 590 nm emission wavelength. […] The average fluorescence was calculated for each triplicate. […] Results were calculated using the Microsoft Excel 2016. […]

[4] = tested on: human breast adenocarcinoma (luminal type) MCF7 cell line; experiment: AlamarBlue cytotoxicity assay, MCF7; type: cell-based; details: MCF7, 0.01 μM to 10 μM, 24 h, 48 h and 72 h
Procedure: as §1

[5] = tested on: human lung cancer COLO699N cell line; experiment: AlamarBlue cytotoxicity assay, COLO699N; type: cell-based; details: 0.01 μM to 10 μM, 24 h, 48 h and 72 h
Procedure: as §1

[6] = liposomal system code 2, DSPE-PEG:CHOL
[7] = liposomal system code 3, DSPE-PEG:PC:CHOL
[8] = liposomal system code 1, DSPE-PEG:CHOL:OA
[9] = liposomal system code 4, DSPE-PEG:CHOL:OA:PC
[10] = liposomal system code 5, DSPE-PEG:OA

SMILES | Encapsulation Efficacy (EE %) [1, 6] [%] | Encapsulation Efficacy (EE %) [1, 7] [%] | Encapsulation Efficacy (EE %) [1, 8] [%] | Encapsulation Efficacy (EE %) [1, 9] [%] | Encapsulation Efficacy (EE %) [1, 10] [%] | cytotoxic effect (in words) [2] | cytotoxic effect (in words) [3] | cytotoxic effect (in words) [4] | cytotoxic effect (in words) [5]
Nc1ccn(-c2nc(O)c3ccccc3n2)c(=O)n1 [4-amino-1-(4-hydroxyquinazolin-2-yl)-1,2-dihydropyrimidin-2-one] | 73.6 | 76.2 | – | – | – | – | – | – | –
CC(=O)Nc1ccn(-c2nc(O)c3ccccc3n2)c(=O)n1 [N-[1-(4-hydroxyquinazolin-2-yl)-2-oxo-1,2-dihydropyrimidin-4-yl]acetamide] | 58.1 | 89.9 | – | – | – | – | – | – | –
Nc1ncnc2c1ncn2-c1nc(OP(=O)(O)O)c2ccccc2n1 [{[2-(6-amino-9H-purin-9-yl)quinazolin-4-yl]oxy}phosphonic acid] | 76.8 | 50.0 | 60.8 | 60.8 | 70.4 | – | – | – | –
Nc1ncnc2c1ncn2-c1nc(O)c2ccccc2n1 [2-(6-Amino-9H-purin-9-yl)quinazolin-4-ol, 2-(6-amino-9H-purin-9-yl)quinazolin-4-ol] | 55.2 | 65.1 | 55.2 | 54.4 | 65.6 | no statistically significant cytotoxic effect | no statistically significant cytotoxic effect | no statistically significant cytotoxic effect | no statistically significant cytotoxic effect
